Experimental data: US9982005B2, “Macrolides and methods of their preparation and use” (President and Fellows of Harvard College, priority 2013, dated 2018)
Converted amounts (≈) assume the structure as drawn. Like-named read-outs stand apart in the source and are kept apart here.

Assays:
Type in all cases: cell-based
[1] = tested on: SA101 S. aureus ATCC29213; assay: broth dilution MIC, S. aureus SA101; conditions: Staphylococcus aureus
Method in brief: (§1)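 Standard CLSI broth dilution method used for MIC determination. Control: azithromycin.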

[2] = tested on: SA183 S. aureus ermA positive msrA unknown; assay: broth dilution MIC, S. aureus SA183; conditions: Staphylococcus aureus
Description: (§2) We have collected MIC data for a total of 50 novel macrolides that this platform has produced against over 21 unique strains of B. subtilis, E. coli, S. aureus, S. pneumoniae, and H. influenzae, including several multidrug-resistant strains, with a special focus on macrolide resistant mechanisms (vide supra). Azithromycin was included as a control macrolide. CLSI standard procedures for broth dilution MIC determination were used. […] These genotypes can be constitutive or inducible. The finding that C4-epi (unnatural) isomers of the “azaketolide” macrolide class have enhanced activities relative to C4 natural isomers is very exciting.

[3] = tested on: SA418 S. aureus ermA negative msrA positive; assay: broth dilution MIC, S. aureus SA418; conditions: Staphylococcus aureus
Description: as §2

[4] = tested on: SA506 S. aureus ermA positive msrA unknown; assay: broth dilution MIC, S. aureus SA506; conditions: Staphylococcus aureus
Description: as §2

[5] = tested on: SA557 S. aureus ermA unknown msrA positive; assay: broth dilution MIC, S. aureus SA557; conditions: Staphylococcus aureus
Description: as §2

[6] = tested on: SA1707 S. aureus ermA negative msrA positive; assay: broth dilution MIC, S. aureus SA1707; conditions: Staphylococcus aureus
Description: as §2

[7] = tested on: SA1708 S. aureus ermA positive msrA negative; assay: broth dilution MIC, S. aureus SA1708; conditions: Staphylococcus aureus
Description: as §2

[8] = tested on: Spn 106 S. pneumonia ATCC49619; assay: broth dilution MIC, S. pneumoniae Spn 106; conditions: Streptococcus pneumoniae; Spn 106 S. pneumonia ATCC49619; read-out: MIC
Description: as §2

[9] = tested on: Spn160 S. pneumoniae ermB unknown mefA positive; assay: broth dilution MIC, S. pneumoniae Spn160; conditions: Streptococcus pneumoniae; Spn160 S. pneumoniae ermB unknown mefA positive; read-out: MIC
Description: as §2

[10] = tested on: Spn1509 S. pneumoniae ermB positive mefA negative; assay: broth dilution MIC, S. pneumoniae Spn1509; conditions: Streptococcus pneumoniae
Description: as §2

[11] = tested on: Spn1533 S. pneumoniae ermB positive mefA positive; assay: broth dilution MIC, S. pneumoniae Spn1533; conditions: Streptococcus pneumoniae
Description: as §2

[12] = tested on: Spn1537 S. pneumoniae ermB positive mefA positive; assay: broth dilution MIC, S. pneumoniae Spn1537; conditions: Streptococcus pneumoniae
Description: as §2

[13] = tested on: Spn1427 S. pneumoniae ermB positive mefA negative; assay: broth dilution MIC, S. pneumoniae Spn1427; conditions: Streptococcus pneumoniae
Description: as §2

EC107 E. coli ATCC25922 = assay: broth dilution MIC, E. coli EC107; conditions: Escherichia coli, read-out: MIC
Method in brief: as §1

EC878 E. coli tolC = assay: broth dilution MIC, E. coli EC878; conditions: Escherichia coli
Method in brief: as §1

EC882 E. coli imp = assay: broth dilution MIC, E. coli EC882; conditions: Escherichia coli
Method in brief: as §1

[14] = tested on: BS1723 B. subtilis BS168 WT wild type; assay: broth dilution MIC, B. subtilis BS1723; conditions: Bacillus subtilis, BS1723 B. subtilis BS168 WT wild type; read-out: MIC
Method in brief: as §1

BS1725 B. subtilis ermC = assay: broth dilution MIC, B. subtilis BS1725; conditions: Bacillus subtilis
Method in brief: as §1

[15] = tested on: HI175 H. influenzae ATCC49247; assay: broth dilution MIC, H. influenzae HI175; conditions: Haemophilus influenzae
Description: as §2

[16] = tested on: S. aureus (Newman, clinical isolate); assay: MIC, S. aureus Newman; conditions: Staphylococcus aureus
Description: as §2

E. coli (MC4100) = assay: MIC, E. coli MC4100
Description: as §2

E. coli strains = assay: MIC against E. coli strains (Table M7); conditions: Escherichia coli, ATCC25922, E. coli ATCC 25922
Method in brief: as §1

S. aureus strains = assay: MIC against S. aureus strains (Table M7); conditions: Staphylococcus aureus
Method in brief: as §1

S. pneumoniae strains = assay: MIC against S. pneumoniae strains (Tables M7, M8); conditions: Streptococcus pneumoniae
Description: CLSI standard procedures for broth dilution MIC determination were used. […] These genotypes can be constitutive or inducible.

E. faecalis strains = assay: MIC against E. faecalis strains (Table M8); conditions: Enterococcus faecalis, E. faecalis 29212
A. baumannii strains = assay: MIC against A. baumannii strains (Table M8); conditions: Acinetobacter baumannii, BAA747, A. baumannii BAA747-1
K. pneumoniae strains = assay: MIC against K. pneumoniae strains (Table M8); conditions: Klebsiella pneumoniae, K. pneumoniae 10031
H. influenzae strains = assay: MIC against H. influenzae strains (Table M8); conditions: Haemophilus influenzae
Method in brief: as §1

[17] = S. aureus (Neuman, clinical isolate), round 2
[18] = ATCC29213, S. aureus ATCC 29213, read-out: MIC S. aureus (ATCC 29213)
[19] = S. aureus 506, read-out: MIC S. aureus (506)
[20] = S. aureus 1708, read-out: MIC S. aureus (1708)
[21] = USA300, S. aureus USA300, read-out: MIC S. aureus (USA300)
[22] = S. pneumoniae 160, read-out: MIC S. pneumonae (160)
[23] = S. pneumoniae 1509, read-out: MIC S. pneumoniae (1509)
[24] = S. pneumoniae 1533, read-out: MIC S. pneumoniae (1533)
[25] = S. pneumoniae 1537, read-out: MIC S. pneumoniae (1537)
[26] = S. pneumoniae 49619, read-out: MIC S. pneumoniae (49619)
[27] = H. influenzae 49247, read-out: MIC H. influenzae (49247)
[28] = H. influenzae 49766, read-out: MIC H. influenzae (49766)

SMILES | MIC [2] | MIC [3] | MIC [4] | MIC [6] | MIC [7] | MIC [8] | MIC [9] | MIC [11] | MIC [12] | MIC [13] | MIC (EC107 E. coli ATCC25922) | MIC (EC878 E. coli tolC) | MIC (EC882 E. coli imp) | MIC [14] | MIC (BS1725 B. subtilis ermC; BS1725 B. subtilis ermC (+ery)) | MIC [16, 17] | MIC (E. coli strains) | MIC (S. aureus strains; [18]) | MIC (S. aureus strains; [19]) | MIC (S. aureus strains; [20]) | also measured
CCC[C@@H]1C[C@@H](C(=O)N[C@@H]([C@H]2O[C@H](SC)[C@H](O)[C@@H](O)[C@H]2O)[C@H](C)Cl)N(C)C1 [Clindamycin, clindamycin, reference compound] | > 32 µg/mL | 0.0625 to 0.125 µg/mL (≈ 0.147 to 0.294 µM) | > 32 µg/mL | 0.0625 to 0.125 µg/mL (≈ 0.147 to 0.294 µM) | 0.25 µg/mL (≈ 0.588 µM) | 0.0312 µg/mL (≈ 0.0734 µM) | 0.0156 to 0.0312 µg/mL (≈ 0.0367 to 0.0734 µM) | > 32 µg/mL | > 32 µg/mL | > 32 µg/mL | > 32 µg/mL | 2 µg/mL (≈ 4.71 µM) | 2 µg/mL (≈ 4.71 µM) | 1 µg/mL (≈ 2.35 µM) | 4 µg/mL (≈ 9.41 µM) |  |  |  |  |  | MIC ([1]; ATCC29213): 0.125 µg/mL (≈ 0.294 µM); MIC [5]: 0.125 µg/mL (≈ 0.294 µM); MIC [10]: 16 to 32 µg/mL (≈ 37.6 to 75.3 µM); MIC (BS1725 B. subtilis ermC; BS1725 B. subtilis ermC (−ery)): 2 µg/mL (≈ 4.71 µM)
CC[C@H]1OC(=O)C(C)(F)C(=O)[C@@H](C)[C@@H](O[C@@H]2OC(C)CC(N(C)C)C2O)[C@](C)(OC)C[C@@H](C)CN[C@H](C)[C@H]2N(CCCCn3cc(-c4cccc(N)n4)nn3)C(=O)O[C@]12C (stereo partly drawn) [FSM-20718] | > 32 µg/mL | 16 µg/mL (≈ 18.9 µM) | > 32 µg/mL | 32 µg/mL (≈ 37.8 µM) | 16 µg/mL (≈ 18.9 µM) | 0.0156 to 0.25 µg/mL (≈ 0.0184 to 0.295 µM) | 0.25 to 1 µg/mL (≈ 0.295 to 1.18 µM) | > 32 µg/mL | > 32 µg/mL | 4 to 32 µg/mL (≈ 4.72 to 37.8 µM) | > 32 µg/mL | 1 µg/mL (≈ 1.18 µM) | 0.125 µg/mL (≈ 0.148 µM) | 8 µg/mL (≈ 9.44 µM) | > 32 µg/mL |  |  |  |  |  | MIC ([1]; ATCC29213, SA101 S. aureus ATCC29213, read-out: MIC): 8 µg/mL (≈ 9.44 µM); MIC ([5]; SA557 S. aureus ermA unknown msrA positive, read-out: MIC): 8 µg/mL (≈ 9.44 µM); MIC ([10]; Spn1509 S. pneumoniae ermB positive mefA negative, read-out: MIC): 0.5 to 4 µg/mL (≈ 0.59 to 4.72 µM); MIC [15]: 2 to 16 µg/mL (≈ 2.36 to 18.9 µM)
CC[C@H]1OC(=O)[C@H](C)C(=O)[C@H](C)[C@@H](O[C@@H]2OC(C)CC(N(C)C)C2O)[C@](C)(OC/C=C/c2cnc3ccccc3c2)C[C@@H](C)CN[C@H](C)[C@H]2NC(=O)O[C@@]21C (stereo partly drawn) [FSM-20919] |  |  |  |  |  |  |  |  |  |  |  |  |  |  |  | 0.5 µg/mL (≈ 0.652 µM) | 4 µg/mL (≈ 5.22 µM) | 0.25 µg/mL (≈ 0.326 µM) | > 32 µg/mL | 0.25 µg/mL (≈ 0.326 µM) | MIC ([16]; S. aureus (Newman, clinical isolate), round 1): 0.25 µg/mL (≈ 0.326 µM); MIC (E. coli (MC4100); Escherichia coli, round 1, read-out: MIC): 2 µg/mL (≈ 2.61 µM); MIC (E. coli (MC4100); round 2): 2 µg/mL (≈ 2.61 µM); MIC (S. aureus strains; S. aureus 183, read-out: MIC S. aureus (183)): > 32 µg/mL; MIC (S. aureus strains; [21]): 0.5 µg/mL (≈ 0.652 µM); MIC (S. pneumoniae strains; [22]): ≤ 0.0625 µg/mL; MIC (S. pneumoniae strains; [23]): 0.5 µg/mL (≈ 0.652 µM); MIC (S. pneumoniae strains; [24]): 32 µg/mL (≈ 41.7 µM); MIC (S. pneumoniae strains; [25]): 32 µg/mL (≈ 41.7 µM); MIC (S. pneumoniae strains; [26]): ≤ 0.0625 µg/mL; MIC (E. faecalis strains): 0.5 µg/mL (≈ 0.652 µM); MIC (A. baumannii strains): 16 µg/mL (≈ 20.9 µM); MIC (K. pneumoniae strains): 16 µg/mL (≈ 20.9 µM); MIC (H. influenzae strains; [27]): 1 µg/mL (≈ 1.3 µM); MIC (H. influenzae strains; [28]): 4 µg/mL (≈ 5.22 µM)
CC[C@H]1OC(=O)[C@H](C)C(=O)[C@H](C)[C@@H](O[C@@H]2OC(C)CC(N(C)C)C2O)[C@](C)(OC)CCN[C@H](C)[C@H]2N(CCCCn3cc(-c4cccc(N)c4)nn3)C(=O)O[C@]12C (stereo partly drawn) [FSM-30622] |  |  |  |  |  |  |  |  |  |  |  |  |  |  |  | > 32 µg/mL | > 32 µg/mL | > 32 µg/mL | > 32 µg/mL | > 32 µg/mL | MIC (E. coli (MC4100); Escherichia coli, round 2, read-out: MIC): > 32 µg/mL; MIC (S. aureus strains; [21]): > 32 µg/mL; MIC (S. pneumoniae strains; [22]): > 32 µg/mL; MIC (S. pneumoniae strains; [23]): > 32 µg/mL; MIC (S. pneumoniae strains; [24]): > 32 µg/mL; MIC (S. pneumoniae strains; [25]): > 32 µg/mL; MIC (S. pneumoniae strains; [26]): > 32 µg/mL; MIC (E. faecalis strains): > 32 µg/mL; MIC (A. baumannii strains): > 32 µg/mL; MIC (K. pneumoniae strains): > 32 µg/mL; MIC (H. influenzae strains; [27]): > 32 µg/mL; MIC (H. influenzae strains; [28]): > 32 µg/mL
